Assay results as given in patent US8076347B2, “Compounds and methods for the treatment of cancer” (University of Georgia Research Foundation, Inc., priority 1995, dated 2011).
“Also recorded” adds a separate entry of the source.

How the values were obtained:
tumor cell lines = type: cell-based
HepG2 cells = assay: Activity against HepG2 cells in nude mice; type: in vivo
Leukemia P388 cells = assay: In vivo treatment of leukemia P388 cells implanted ip in BDF1 mice; settings: 25 × 2 × 5 mg/kg ip, twice a day on days 1 to 5
Excerpt: 10^6 Leukemia P388 cells were implanted ip to BDF1 mice obtained from Southern Research Institute, Alabama.

Colon 38 tumor cells = assay: In vivo treatment of Colon 38 tumor cells implanted sc in BDF1 mice; settings: 25 mg/kg/dose twice daily for five days
Excerpt: Colon 38 tumor cells were implanted sc to BDF1 mice.

cytidine deaminase = cytidine deaminase (Homo sapiens, UniProt P32320); assay: Enzymatic studies of deamination; type: biochemical
[1] = molecular target: human deoxycytidine kinase (Homo sapiens, UniProt P27707); assay: In vitro enzymatic studies of phosphorylation; type: biochemical
[2] = Phosphorylation to nucleotides in vivo

cytidine deaminase, sequence (P32320 whole entry, species assumed): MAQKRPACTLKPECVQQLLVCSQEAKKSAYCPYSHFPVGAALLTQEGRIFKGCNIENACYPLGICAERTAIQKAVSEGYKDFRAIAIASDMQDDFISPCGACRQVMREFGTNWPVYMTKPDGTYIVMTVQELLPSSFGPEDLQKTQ
human deoxycytidine kinase, sequence (P27707 whole entry): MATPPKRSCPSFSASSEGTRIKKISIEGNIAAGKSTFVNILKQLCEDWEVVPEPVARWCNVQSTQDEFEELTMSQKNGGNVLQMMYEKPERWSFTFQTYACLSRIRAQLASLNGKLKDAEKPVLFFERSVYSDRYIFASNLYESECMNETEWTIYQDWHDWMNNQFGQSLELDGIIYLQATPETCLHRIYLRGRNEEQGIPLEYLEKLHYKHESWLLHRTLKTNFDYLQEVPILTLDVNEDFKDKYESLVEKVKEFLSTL

| Structure (SMILES) | cytotoxicity in all of the tumor cell lines tested (tumor cell lines) | activity against HepG2 cells in nude mice (HepG2 cells) | Cures/Total (survivors equal or greater than 45 day life span) (Leukemia P388 cells; 5 mg/kg) | ILS (Increased Life Span percent above control) (Leukemia P388 cells; 10^6 P388 cells ip on day 0) [%] | colon tumor cell growth (FIG. 2) (Colon 38 tumor cells) | effectiveness compared with AraC (tumor cell lines; KB, DU-145 and PC-3 cell lines) | deamination / substrate for deaminase (cytidine deaminase) | phosphorylation by human deoxycytidine kinase [1] | phosphorylation to mono-, di- and tri-phosphate nucleotide [2] |
| --- | --- | --- | --- | --- | --- | --- | --- | --- | --- |
| O=c1ccn(C2COC(CO)O2)c(=O)[nH]1 (single isomer, unassigned; (-)) [(−)-OddU, reference compound] | not toxic |  |  |  |  |  |  |  |  |
| Nc1ccn([C@@H]2O[C@H](CO)[C@@H](O)[C@@H]2O)c(=O)n1 [AraC, Cytosine arabinoside, reference compound] |  | inactive |  |  |  |  |  |  |  |
| Nc1ccn([C@@H]2CO[C@H](CO)O2)c(=O)n1 [(−)-OddC, (−)-(2S,4S)-1-(2-hydroxymethyl-1,3-dioxolan-4-yl)cytosine] | more cytotoxic than AraC | active | 1/6 | 103 | retarded | significantly more effective than AraC | not a substrate for deaminase; also recorded: not deaminated | can be phosphorylated by this enzyme | can be phosphorylated |
